ChEMBL document CHEMBL4811244, “Design and synthesis of 1H-pyrazolo[3,4-b]pyridines targeting mitogen-activated protein kinase kinase 4 (MKK4) - A promising target for liver regeneration” (Eur J Med Chem, 2021)

What was measured:
[1] = molecular target: Mitogen-activated protein kinase kinase kinase kinase 5 (Homo sapiens, UniProt Q9Y4K4); assay: Binding affinity to wild-type human partial length MAP4K5 (M1 to P297 residues) expressed in bacterial expression system assessed as residual binding level at 100 nM by Kinomescan method relative to control
[2] = molecular target: T1, Dual specificity mitogen-activated protein kinase kinase 7 (Homo sapiens) (UniProt O14733); assay: Binding affinity to wild-type human full length MKK7 (M1 to R419 residues) expressed in mammalian expression system assessed as residual binding level at 100 nM by Kinomescan method relative to control
T1 sequence (whole entry): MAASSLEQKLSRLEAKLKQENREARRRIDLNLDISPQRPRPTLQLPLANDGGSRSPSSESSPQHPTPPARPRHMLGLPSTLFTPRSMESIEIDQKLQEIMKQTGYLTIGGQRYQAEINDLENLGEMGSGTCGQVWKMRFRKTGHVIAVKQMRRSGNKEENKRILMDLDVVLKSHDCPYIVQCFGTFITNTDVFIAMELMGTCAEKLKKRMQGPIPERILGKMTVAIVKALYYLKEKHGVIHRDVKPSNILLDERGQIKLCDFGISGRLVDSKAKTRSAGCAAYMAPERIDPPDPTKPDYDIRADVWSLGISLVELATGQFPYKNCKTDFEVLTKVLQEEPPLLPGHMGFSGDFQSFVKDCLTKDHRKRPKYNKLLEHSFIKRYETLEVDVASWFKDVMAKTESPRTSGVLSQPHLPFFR

[3] = molecular target: Mitogen-activated protein kinase kinase kinase 20 (Homo sapiens, UniProt Q9NYL2); assay: Binding affinity to wild-type human partial length ZAK (M1 to L331 residues) expressed in bacterial expression system assessed as residual binding level at 100 nM by Kinomescan method relative to control
[4] = molecular target: T2, Dual specificity mitogen-activated protein kinase kinase 4 (Homo sapiens, UniProt P45985); assay: Inhibition of MKK4 (unknown origin) by PanQinase assay
T2 sequence (P45985 whole entry): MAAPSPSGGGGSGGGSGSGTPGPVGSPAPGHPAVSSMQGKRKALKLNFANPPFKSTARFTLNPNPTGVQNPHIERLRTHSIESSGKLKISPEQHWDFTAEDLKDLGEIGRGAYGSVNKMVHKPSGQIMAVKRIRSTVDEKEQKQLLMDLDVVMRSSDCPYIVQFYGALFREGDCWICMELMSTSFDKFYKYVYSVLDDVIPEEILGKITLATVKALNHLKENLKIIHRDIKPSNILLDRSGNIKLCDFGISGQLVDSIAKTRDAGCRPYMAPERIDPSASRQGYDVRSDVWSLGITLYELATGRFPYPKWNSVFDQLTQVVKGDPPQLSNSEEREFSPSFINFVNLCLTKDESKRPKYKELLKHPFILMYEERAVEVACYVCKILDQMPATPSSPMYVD

Sequence of Mitogen-activated protein kinase kinase kinase kinase 5 (Q9Y4K4 whole entry, looked up, the tested form may be a part): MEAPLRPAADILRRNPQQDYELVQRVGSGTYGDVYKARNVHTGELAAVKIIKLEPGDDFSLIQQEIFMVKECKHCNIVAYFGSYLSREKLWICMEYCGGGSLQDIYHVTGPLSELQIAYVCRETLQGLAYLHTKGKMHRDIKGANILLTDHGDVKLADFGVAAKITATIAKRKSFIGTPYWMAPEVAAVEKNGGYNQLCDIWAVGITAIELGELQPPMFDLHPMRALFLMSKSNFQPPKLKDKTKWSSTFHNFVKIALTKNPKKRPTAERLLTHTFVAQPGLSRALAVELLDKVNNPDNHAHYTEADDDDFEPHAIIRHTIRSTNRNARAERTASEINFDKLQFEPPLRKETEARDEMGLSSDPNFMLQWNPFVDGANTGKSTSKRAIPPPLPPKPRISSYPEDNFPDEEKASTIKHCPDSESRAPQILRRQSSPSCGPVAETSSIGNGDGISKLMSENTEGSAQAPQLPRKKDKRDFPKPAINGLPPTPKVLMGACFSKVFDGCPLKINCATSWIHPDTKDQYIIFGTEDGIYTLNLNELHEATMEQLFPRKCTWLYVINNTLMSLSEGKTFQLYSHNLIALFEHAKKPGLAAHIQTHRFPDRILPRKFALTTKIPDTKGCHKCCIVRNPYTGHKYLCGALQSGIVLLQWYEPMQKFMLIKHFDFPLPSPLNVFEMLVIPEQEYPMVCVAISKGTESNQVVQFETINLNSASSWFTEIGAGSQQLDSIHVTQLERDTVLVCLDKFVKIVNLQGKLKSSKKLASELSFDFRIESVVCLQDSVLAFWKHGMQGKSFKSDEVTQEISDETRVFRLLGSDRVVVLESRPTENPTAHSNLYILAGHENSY
Sequence of Mitogen-activated protein kinase kinase kinase 20 (Q9NYL2 2-800 limits assumed): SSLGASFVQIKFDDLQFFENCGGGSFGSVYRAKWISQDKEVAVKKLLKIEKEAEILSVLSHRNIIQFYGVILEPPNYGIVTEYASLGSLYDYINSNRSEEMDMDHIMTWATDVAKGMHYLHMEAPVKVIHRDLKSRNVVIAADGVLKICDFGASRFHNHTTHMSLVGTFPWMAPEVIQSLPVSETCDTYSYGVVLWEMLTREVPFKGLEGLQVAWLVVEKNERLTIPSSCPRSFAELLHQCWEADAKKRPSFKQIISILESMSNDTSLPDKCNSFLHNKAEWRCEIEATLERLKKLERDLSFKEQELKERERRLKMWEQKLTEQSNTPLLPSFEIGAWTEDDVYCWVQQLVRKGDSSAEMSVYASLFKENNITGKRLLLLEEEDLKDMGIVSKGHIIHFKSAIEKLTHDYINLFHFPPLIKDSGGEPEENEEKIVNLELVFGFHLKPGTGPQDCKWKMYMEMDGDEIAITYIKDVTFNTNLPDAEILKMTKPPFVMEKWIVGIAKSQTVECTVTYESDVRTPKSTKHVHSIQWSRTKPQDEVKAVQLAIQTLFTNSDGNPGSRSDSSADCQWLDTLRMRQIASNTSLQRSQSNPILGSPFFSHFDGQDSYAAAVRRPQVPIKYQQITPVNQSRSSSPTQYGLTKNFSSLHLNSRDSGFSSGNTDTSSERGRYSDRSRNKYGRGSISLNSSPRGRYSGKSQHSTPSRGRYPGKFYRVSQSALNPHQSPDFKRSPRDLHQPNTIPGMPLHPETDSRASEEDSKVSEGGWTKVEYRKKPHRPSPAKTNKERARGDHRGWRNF

Activity [1] [%] | Activity [2] [%] | Activity [3] [%] | IC50 [4] [nM] | Compound
9.4 | 87 | 0 |  | CCCS(=O)(=O)Nc1ccc(F)c(C(=O)c2n[nH]c3ncc(-c4ccc(O)cc4)cc23)c1F
10 | 99 | 8.1 |  | CCCS(=O)(=O)Nc1ccc(F)c(C(=O)c2n[nH]c3ncc(-c4ccc(C(N)=O)cc4)cc23)c1F
97 | 100 | 77 |  | CCCS(=O)(=O)Nc1ccc(F)c(C(=O)c2n[nH]c3ncc(-c4ccc(C(C)(C)C)cc4)cc23)c1F
26 | 100 | 32 |  | CCCS(=O)(=O)Nc1ccc(F)c(C(=O)c2n[nH]c3ncc(-c4ccc(S(=O)(=O)NCC)cc4)cc23)c1F
59 | 83 | 32 |  | CCCS(=O)(=O)Nc1ccc(F)c(C(=O)c2n[nH]c3ncc(-c4ccccc4F)cc23)c1F
3.8 | 86 | 2.3 |  | CCCS(=O)(=O)Nc1ccc(F)c(C(=O)c2n[nH]c3ncc(-c4cccc(N)c4)cc23)c1F
25 | 100 | 5.9 |  | CCCS(=O)(=O)Nc1ccc(F)c(C(=O)c2n[nH]c3ncc(-c4ccc(C)cc4)cc23)c1F
100 | 96 | 99 |  | CCCS(=O)(=O)Nc1ccc(F)c(C(=O)c2n[nH]c3ncc(-c4ccc(Cl)cc4Cl)cc23)c1F
14 | 100 | 21 |  | CCCS(=O)(=O)Nc1ccc(F)c(C(=O)c2n[nH]c3ncc(-c4ccc(S(C)(=O)=O)cc4)cc23)c1F
16 | 100 | 20 |  | CCCS(=O)(=O)Nc1ccc(F)c(C(=O)c2n[nH]c3ncc(-c4ccc(Cl)c(C(F)(F)F)c4)cc23)c1F
93 | 95 | 52 |  | CCCS(=O)(=O)Nc1ccc(F)c(C(=O)c2n[nH]c3ncc(-c4cccc([N+](=O)[O-])c4)cc23)c1F
67 | 100 | 41 |  | CCCS(=O)(=O)Nc1ccc(F)c(C(=O)c2n[nH]c3ncc(-c4ccccc4C)cc23)c1F
73 | 95 | 40 |  | CCCS(=O)(=O)Nc1ccc(F)c(C(=O)c2n[nH]c3ncc(-c4ccccc4N)cc23)c1F
39 | 100 | 9.7 |  | CCCS(=O)(=O)Nc1ccc(F)c(C(=O)c2n[nH]c3ncc(-c4ccccc4O)cc23)c1F
67 | 71 | 38 | 29 | CCCS(=O)(=O)Nc1ccc(F)c(C(=O)c2n[nH]c3ncc(-c4ccc(S(=O)(=O)NC(C)=O)cc4)cc23)c1F
81 | 64 | 20 |  | CCCS(=O)(=O)Nc1ccc(F)c(C(=O)c2n[nH]c3ncc(-c4ccc(-c5nnn[nH]5)cc4)cc23)c1F
61 | 100 | 23 |  | CCCS(=O)(=O)Nc1ccc(F)c(C(=O)c2n[nH]c3ncc(-c4ccc([N+](=O)[O-])cc4)cc23)c1F
53 | 100 | 74 |  | CCCS(=O)(=O)Nc1ccc(F)c(C(=O)c2n[nH]c3ncc(-c4ccc(OC)cc4Cl)cc23)c1F
76 | 100 | 75 |  | CCCS(=O)(=O)Nc1ccc(F)c(C(=O)c2n[nH]c3ncc(-c4ccc(C(F)(F)F)cc4)cc23)c1F
 | 100 | 94 |  | CCCS(=O)(=O)Nc1ccc(F)c(C(=O)c2n[nH]c3ncc(-c4ccc(S(N)(=O)=O)cc4C)cc23)c1F
24 | 100 | 23 |  | CCCS(=O)(=O)Nc1ccc(F)c(C(=O)c2n[nH]c3ncc(-c4cccc(OC)c4)cc23)c1F

Activity [1] [%] | Activity [2] [%] | Activity [3] [%] | IC50 [4] [nM] | Compound
34 | 100 | 36 |  | CCCS(=O)(=O)Nc1ccc(F)c(C(=O)c2n[nH]c3ncc(-c4ccccc4OC)cc23)c1F
100 | 100 | 85 |  | CCCS(=O)(=O)Nc1ccc(F)c(C(=O)c2n[nH]c3ncc(-c4ccc(Cl)c(Cl)c4)cc23)c1F
65 | 97 | 12 |  | CCCS(=O)(=O)Nc1ccc(F)c(C(=O)c2n[nH]c3ncc(-c4cccc(F)c4)cc23)c1F
 | 100 | 100 |  | CCCS(=O)(=O)Nc1ccc(F)c(C(=O)c2n[nH]c3ncc(-c4ccc(S(N)(=O)=O)cc4Cl)cc23)c1F
55 | 100 | 65 |  | CCCS(=O)(=O)Nc1ccc(F)c(C(=O)c2n[nH]c3ncc(-c4ccc(F)cc4C)cc23)c1F
18 | 100 | 5.5 |  | CCCS(=O)(=O)Nc1ccc(F)c(C(=O)c2n[nH]c3ncc(-c4cccc(C)c4)cc23)c1F
98 | 100 | 44 |  | CCCS(=O)(=O)Nc1ccc(F)c(C(=O)c2n[nH]c3ncc(-c4cccc(C(F)(F)F)c4)cc23)c1F
28 | 100 | 1.9 |  | CCCS(=O)(=O)Nc1ccc(F)c(C(=O)c2n[nH]c3ncc(-c4ccc(OC)cc4)cc23)c1F
31 | 100 | 2.2 |  | CCCS(=O)(=O)Nc1ccc(F)c(C(=O)c2n[nH]c3ncc(-c4ccc(N(C)C)cc4)cc23)c1F
99 | 100 | 66 |  | CCCS(=O)(=O)Nc1ccc(F)c(C(=O)c2n[nH]c3ncc(-c4cc(Cl)cc(Cl)c4)cc23)c1F
1.3 | 93 | 2.7 |  | CCCS(=O)(=O)Nc1ccc(F)c(C(=O)c2n[nH]c3ncc(-c4ccc(N)cc4)cc23)c1F
75 | 27 | 7.5 |  | CCCS(=O)(=O)Nc1ccc(F)c(C(=O)c2n[nH]c3ncc(-c4ccc(C(=O)O)cc4)cc23)c1F
20 | 100 | 24 |  | CCCS(=O)(=O)Nc1ccc(F)c(C(=O)c2n[nH]c3ncc(-c4ccc(C)c(C)c4)cc23)c1F
100 | 98 | 91 | 89 | CCCS(=O)(=O)Nc1ccc(F)c(C(=O)c2n[nH]c3ncc(-c4ccc(S(N)(=O)=O)cc4)cc23)c1F
8 | 100 | 0.95 |  | CCCS(=O)(=O)Nc1ccc(F)c(C(=O)c2n[nH]c3ncc(-c4cccc(O)c4)cc23)c1F
89 | 98 | 92 |  | CCCS(=O)(=O)Nc1ccc(F)c(C(=O)c2n[nH]c3ncc(-c4ccc(C(C)C)cc4)cc23)c1F
17 | 100 | 33 |  | CCCS(=O)(=O)Nc1ccc(F)c(C(=O)c2n[nH]c3ncc(-c4ccc(S(=O)(=O)NC)cc4)cc23)c1F
59 | 100 | 4.8 |  | CCCS(=O)(=O)Nc1ccc(F)c(C(=O)c2n[nH]c3ncc(-c4ccc(F)cc4)cc23)c1F
69 | 100 | 16 |  | CCCS(=O)(=O)Nc1ccc(F)c(C(=O)c2n[nH]c3ncc(-c4cccc(Cl)c4)cc23)c1F
11 | 100 | 9.7 |  | CCCS(=O)(=O)Nc1ccc(F)c(C(=O)c2n[nH]c3ncc(-c4cccc(N(C)C)c4)cc23)c1F
96 | 100 | 64 |  | CCCS(=O)(=O)Nc1ccc(F)c(C(=O)c2n[nH]c3ncc(-c4ccccc4Cl)cc23)c1F

Compound | Activity [1] [%] | Activity [2] [%] | Activity [3] [%] | IC50 [4] [nM]
CCCS(=O)(=O)Nc1ccc(F)c(C(=O)c2n[nH]c3ncc(-c4ccc(S(N)(=O)=O)cc4F)cc23)c1F | 77 | 100 | 100 | 
CCCCS(=O)(=O)Nc1ccc(F)c(C(=O)c2n[nH]c3ncc(-c4ccc(S(N)(=O)=O)cc4)cc23)c1F | 100 | 100 | 100 | 
CS(=O)(=O)Nc1ccc(F)c(C(=O)c2n[nH]c3ncc(-c4ccc(S(N)(=O)=O)cc4)cc23)c1F | 99 | 99 | 100 | 
CCCS(=O)(=O)Nc1ccc(F)c(C(=O)c2n[nH]c3ncc(-c4ccc(NS(C)(=O)=O)cc4)cc23)c1F | 1.1 | 100 | 4.3 | 
CCCS(=O)(=O)Nc1ccc(F)c(C(=O)c2n[nH]c3ncc(-c4ccccc4)cc23)c1F | 24 | 100 | 1.9 | 
